Experimental data as given in US9221868B2, “Uridine di- or tri-phosphate derivatives and uses thereof” (BAR-ILAN UNIVERSITY, priority 2010, dated 2015).
“And” between values parts separate entries of the source, which are not always exact repeats. Identical values can stand only once.

How the values were obtained:
human NPP3 = target: T1, human NPP3 (Homo sapiens, UniProt O14638); test: Hydrolysis by NPP3 (HPLC); type: in vitro ADME; conditions: 3 h at 37° C., pH 8.5
T1 construct: Center of Research in Rheumatology and Immunology, Laval University (Québec, Canada), provided and not purchased
T1 sequence (O14638 1-875): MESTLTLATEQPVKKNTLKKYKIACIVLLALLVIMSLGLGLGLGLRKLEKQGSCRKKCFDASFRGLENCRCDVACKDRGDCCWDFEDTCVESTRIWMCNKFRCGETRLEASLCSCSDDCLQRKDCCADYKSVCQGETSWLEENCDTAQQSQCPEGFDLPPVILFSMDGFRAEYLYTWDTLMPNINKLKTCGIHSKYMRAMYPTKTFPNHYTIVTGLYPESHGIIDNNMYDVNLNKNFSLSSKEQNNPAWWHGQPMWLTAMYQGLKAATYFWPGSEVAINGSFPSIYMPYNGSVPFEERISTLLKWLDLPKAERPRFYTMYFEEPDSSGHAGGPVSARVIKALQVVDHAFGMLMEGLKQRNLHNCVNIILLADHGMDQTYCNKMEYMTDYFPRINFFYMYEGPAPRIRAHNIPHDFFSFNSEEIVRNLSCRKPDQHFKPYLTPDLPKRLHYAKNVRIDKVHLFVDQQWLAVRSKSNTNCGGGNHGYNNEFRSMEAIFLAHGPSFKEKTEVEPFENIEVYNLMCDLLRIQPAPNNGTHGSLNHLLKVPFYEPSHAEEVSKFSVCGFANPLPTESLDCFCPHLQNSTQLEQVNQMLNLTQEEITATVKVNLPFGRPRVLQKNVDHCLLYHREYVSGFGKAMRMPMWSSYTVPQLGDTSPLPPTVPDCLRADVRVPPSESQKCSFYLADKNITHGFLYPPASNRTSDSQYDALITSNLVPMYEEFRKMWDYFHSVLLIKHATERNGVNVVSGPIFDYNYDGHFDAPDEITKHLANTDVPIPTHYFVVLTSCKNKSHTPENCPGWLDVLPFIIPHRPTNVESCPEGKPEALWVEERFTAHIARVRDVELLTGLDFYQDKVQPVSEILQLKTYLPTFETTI
Method: (§1) All stability experiments were performed in duplicates.
(§2) In this study, the hydrolysis rate of analogue 13A as compared to UDP and analogue 12, by human NPP1 and NPP3 after incubation at 37° C. in appropriate buffer, was determined.
(§3) 56.15 μg or 57.78 μg of human NPP1 or NPP3 extract, respectively, was added to 0.575 ml the incubation mixture (1 mM […], 200 mM NaCl, 10 mM KCl and 100 mM Tris, pH 8.5) and preincubated at 37° C. for 3 min. Reaction was initiated by the addition of 0.015 ml of 4 mM of UDP, 12 or 13A. The reaction was stopped after incubation of 2 h or 3 h with NPP1 or NPP3, respectively, by transferring a 0.1 ml aliquot from the reaction mixture to 0.350 ml ice-cold 1 M perchloric acid. These samples were centrifuged for 1 min at 10000×g. Supernatants were neutralized with 1 M KOH in 4° C. and centrifuged 1 min at 10000×g. The reaction mixture was filtered and freeze-dried.

physchem = conditions: for Half-life (t1/2) of hydrolysis at pH 1.4 / half-life: buffer, pH 1.4; for Rate constant of phosphate ester hydrolysis at pH 1.4: pH 1.4, 37° C., pseudo-first-order
Method: as §1
The stability of UDP, 11, 12 and 13A in a buffer solution (pH 1.4) was evaluated by ^31P NMR at 37° C. for monitoring possible dephosphorylation products (the signal of the phosphate hydrolysis products is at ˜0 ppm, while that of the borano phosphate analogues is at ˜85 ppm). NMR spectra were recorded on a Bruker DMX-600 spectrometer with a ^31P NMR probe (isotope frequency of 240 MHz) using 85% H3PO4 as an external reference.
Sodium salts of UDP, 11, 12 and 13A were dissolved in 0.45 ml of KCl/HCl buffer (pH 1.4) and D2O (0.05 ml) was added. The final pH was adjusted to pH 1.4. pH measurements were performed with an Metrohm pH electrode and a Metrohm 827 meter. Spectra were recorded at 15 min, 1 h, or 24 h time intervals at 37° C. For experiments that were several days long, the solution was kept in an oil bath at 37° C. and spectra were recorded at ca. 24 h time intervals. The phosphate ester hydrolysis rate was determined by measuring the change of the integration of one of the phosphates signals of the starting material with time.

human NPP1 = target: T2, human NPP1 (Homo sapiens, UniProt P22413); test: Hydrolysis by NPP1 (HPLC); type: in vitro ADME; conditions: 2 h at 37° C., pH 8.5
T2 construct: Center of Research in Rheumatology and Immunology, Laval University (Québec, Canada), provided and not purchased
T2 sequence (P22413 1-925): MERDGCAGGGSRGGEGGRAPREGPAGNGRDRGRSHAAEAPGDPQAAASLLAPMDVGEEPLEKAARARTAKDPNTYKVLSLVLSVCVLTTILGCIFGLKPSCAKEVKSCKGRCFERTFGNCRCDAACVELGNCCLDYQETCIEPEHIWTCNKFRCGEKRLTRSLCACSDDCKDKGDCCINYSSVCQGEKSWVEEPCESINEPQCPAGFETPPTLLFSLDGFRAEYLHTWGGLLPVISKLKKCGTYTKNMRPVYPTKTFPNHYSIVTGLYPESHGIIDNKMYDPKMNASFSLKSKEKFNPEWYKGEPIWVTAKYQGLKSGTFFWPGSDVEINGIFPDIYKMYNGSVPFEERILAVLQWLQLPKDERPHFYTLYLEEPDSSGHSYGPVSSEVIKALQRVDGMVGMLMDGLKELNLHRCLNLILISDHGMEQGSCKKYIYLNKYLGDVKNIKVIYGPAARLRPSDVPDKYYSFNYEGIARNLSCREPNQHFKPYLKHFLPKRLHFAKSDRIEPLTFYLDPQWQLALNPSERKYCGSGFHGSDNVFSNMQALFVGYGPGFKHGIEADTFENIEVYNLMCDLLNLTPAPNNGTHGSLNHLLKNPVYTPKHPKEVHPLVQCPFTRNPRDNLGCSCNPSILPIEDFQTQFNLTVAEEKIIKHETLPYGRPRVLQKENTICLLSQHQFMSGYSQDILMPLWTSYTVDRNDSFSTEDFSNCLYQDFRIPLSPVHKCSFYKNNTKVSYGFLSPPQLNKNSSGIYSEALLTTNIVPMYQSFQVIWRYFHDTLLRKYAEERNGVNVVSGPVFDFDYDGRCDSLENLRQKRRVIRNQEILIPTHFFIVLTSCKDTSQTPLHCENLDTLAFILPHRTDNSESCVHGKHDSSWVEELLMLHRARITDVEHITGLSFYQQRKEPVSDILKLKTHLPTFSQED
Method: as §1, §2, §3

[1] = Stability in human blood serum (HPLC); conditions: for half-life at 0.14 mg/ml: human, human blood serum diluted in RPMI-1640
Method: Human blood serum was obtained from a blood bank (Tel-Hashomer Hospital, Israel). All stability experiments were performed in duplicates.
The assay mixture containing 0.1 mg each analogue in deionized water (4.5 μl), human blood serum (180 μl) and RPMI-1640 medium (540 μl) (Eliahu et al., 2010a) was incubated at 37° C. for 0-24 h. At 0.5-12 h intervals, each sample was heated to 80° C. for 30 min, treated with CM Sephadex (1-2 mg), shaken for 2 h and centrifuged for 6 min (12000 rpm), and the aqueous layer was collected and extracted with chloroform (2×500 μl). The aqueous layer was freeze-dried and then dissolved in deionized water (100 μl). Samples were loaded onto an activated Starta X-AW weak anion exchange cartridge, washed with H2O (1 ml) and eluted with MeOH:H2O (1:1, 1 ml) followed by NH4OH:MeOH:H2O (2:25:73, 1 ml), and then freeze-dried. The resulting residue was analyzed by HPLC on a Gemini analytical column (5μ C-18 557 110 A; 150 mm×4.60 mm), using gradient elution with solvent system I (for UDP and 12—A:B 96:4 over 10 min) or II (for uridine-5′-O-(α-borano diphosphate) and 13A—A:B 97.5:2.5 over 10 min) at a flow rate of 1 ml/min. […] The percentage of compound degradation was calculated vs. control, to take into consideration the degradation of the compounds due to the work up following the enzymatic reaction. Therefore, each of the samples was compared to a control which was put through the same workup, but to which no serum was added. The percentage of degradation was calculated from the area under the curve of the nucleoside monophosphate peak, after subtraction of the control, which is the amount of the nucleoside monophosphate peak formed due to chemical hydrolysis.

Row | Compound | Hydrolysis percentage by NPP3 (human NPP3) | Half-life (t1/2) of hydrolysis at pH 1.4 (physchem) | Rate constant of phosphate ester hydrolysis at pH 1.4 (physchem) | Hydrolysis percentage by NPP1 (human NPP1) | Half-life in human blood serum ([1]; human blood serum and RPMI-1640, 37° C.) | half-life (physchem) | half-life at 0.14 mg/ml [1]
1 | O=c1ccn([C@@H]2O[C@H](COP(=O)(O)OP(=O)(O)O)[C@@H](O)[C@H]2O)c(=O)[nH]1 [UDP, reference compound] | 45% | ~12 days | 6.66×10^−7 s^−1 | 50% | 2.4 h |  | 
2 | COc1cn([C@@H]2O[C@H](COP(=O)(O)OP(=O)(O)O)[C@@H](O)[C@H]2O)c(=O)[nH]c1=O [Analogue 12, 5-methoxyuridine diphosphate] | 36% | 13 days | 6.25×10^−7 s^−1 | 49% and 51% |  | ~312 h | 11.9 h
3 | [BH3-][P+](O)(OCC1OC(n2cc(OC)c(=O)[nH]c2=O)C(O)C1O)OP(=O)(O)O (single isomer, unassigned) [Analogue 13A, 5-methoxyuridine-5′-O-(α-boranodiphosphate)] | 28% |  |  | 15% |  | 16.9 h | 17 h
